Laboratory results taken from patent US20230123104A1, “CRYSTAL OF TRICYCLIC COMPOUND ACTING ON CRBN PROTEIN AND PREPARATION METHOD THEREFOR” (CHIA TAI TIANQING PHARMACEUTICAL GROUP CO., LTD., priority 2020, published 2023).

How the values were obtained:
Type in all cases: physicochemical
[1] = Hygroscopicity study by dynamic vapor sorption (DVS)
Protocol: In the present application, dynamic vapor sorption (DVS) analysis is performed under the following conditions: instrument: SMS DVS Advantage-1; equilibration: dm/dt=0.01%/min (shortest: 60 min, longest: 180 min); drying: drying at 0% RH for 120 min; RH (%) test gradient: 10%; range of RH (%) test gradient: 0%-90%-0%.
The evaluation of hygroscopicity was classified as follows:
Dynamic Vapor Sorption Apparatus SMS DVS Advantage-1
10-15 mg of the crystalline form A of the compound of formula (I) was placed in a DVS sample tray and tested.

[2] = Stability test of crystalline form A in different solvents (XRPD); details: methanol, ethanol, acetone, acetonitrile, tetrahydrofuran, methyl tert-butyl ether, ethyl acetate, water, acetonitrile or acetone with water
Protocol: 50-mg portions of the crystalline form A of the compound of formula (I) were weighed into different 2.0 mL glass vials, and appropriate amounts of single or mixed solvents in the table below were added. After the addition of magnetic stir bars, the samples were stirred on a magnetic stirrer (25° C./50° C., 700 rpm) in the dark. The 25° C. samples were stirred for 1 week and centrifuged, and the resulting solid samples were dried in a vacuum oven at 40° C. overnight. The 50° C. samples were stirred for 2 days and centrifuged in a centrifuge tube with a filter membrane, and the solvent in the lower layer was discarded. The samples were let stand in a fume hood for 1 h so that they were air-dried. The resulting dried samples were subjected to XRPD analysis to determine their crystalline forms.

[3] = Solid stability test at high temperature, at high humidity, and in intense light
Protocol: According to the “Guidelines for the Stability Test of APIs and Preparations” (General Principles 9001 of the Four Parts of the Chinese Pharmacopoeia, 2020 Edition), the stability of the crystalline form A of the compound of formula (I) was investigated at high temperature (60° C., open), at high humidity (room temperature/relative humidity at 92.5%, open), and in intense light (5000±500 Lux, 90 μw/cm^2, open).
1.5 g of the crystalline form A of the compound of formula (I) was weighed into an open measuring flask and spread out to form a thin layer. The sample for high temperature test was placed in an electrothermal drying oven and investigated, and the sample for high humidity test was placed in an integrated drug stability test chamber and investigated. Samples were taken on days 5, 10 and 30 for analysis, and the results were compared with the preliminary results of day 0. The sample for intense light test was placed in an open flask. Samples were taken on days 5 and 10 for analysis, and the results were compared with the preliminary results of day 0.

[4] = Solid stability test under accelerated conditions (40° C./relative humidity at 75%, sealed)
Protocol: According to the “Guidelines for the Stability Test of APIs and Preparations” (General Principles 9001 of the Four Parts of the Chinese Pharmacopoeia, 2020 Edition), the stability of the crystalline form A of the compound of formula (I) was investigated under accelerated conditions at high temperature and high humidity (40° C./relative humidity at 75%, sealed).
1.5 g of the crystalline form A of the compound of formula (I) was weighed into a double-layer low-density polyethylene bag. Each layer a the low-density polyethylene bag was sealed with a binding tie, and the bag was put into an aluminum foil bag. Samples were taken in months 1, 2, 3 and 6 for analysis, and the results were compared with the preliminary results of day 0. This experiment was repeated twice, each with a different batch of the crystalline form A of the compound of formula (I).

[5] = Solid stability test under long-term conditions (25° C./relative humidity at 60%, sealed)
Protocol: According to the “Guidelines for the Stability Test of APIs and Preparations” (General Principles 9001 of the Four Parts of the Chinese Pharmacopoeia, 2020 Edition), the stability of the crystalline form A of the compound of formula (I) was investigated under long-terns conditions (25° C./relative humidity at 60%, sealed).
1.5 g of the crystalline form A of the compound of formula (I) was weighed into a double-layer low-density polyethylene bag. Each layer of the low-density polyethylene bag was sealed with a binding tie, and the bag was put into an aluminum foil hag. Samples were taken in months 3 and 6 for analysis, and the results were compared with the preliminary results of day 0. This experiment was repeated twice, each with a different batch of the crystalline form A of the compound of formula (I).

[6] = High humidity (room temperature/relative humidity 92.5%, open), Day 5
[7] = High humidity (room temperature/relative humidity 92.5%, open), Day 10
[8] = High humidity (room temperature/relative humidity 92.5%, open), Day 30
[9] = High temperature (60° C., open), Day 5
[10] = High temperature (60° C., open), Day 10
[11] = High temperature (60° C., open), Day 30
[12] = Intense light (5000 ± 500 Lux, 90 μw/cm^2, open), Day 5
[13] = Intense light (5000 ± 500 Lux, 90 μw/cm^2, open), Day 10
[14] = Batch 1, 40° C./relative humidity at 75%, sealed, Month 1
[15] = Batch 1, 40° C./relative humidity at 75%, sealed, Month 2
[16] = Batch 1, 40° C./relative humidity at 75%, sealed, Month 3
[17] = Batch 1, 40° C./relative humidity at 75%, sealed, Month 6
[18] = Batch 2, 40° C./relative humidity at 75%, sealed, Month 1
[19] = Batch 2, 40° C./relative humidity at 75%, sealed, Month 2
[20] = Batch 2, 40° C./relative humidity at 75%, sealed, Month 3
[21] = Batch 2, 40° C./relative humidity at 75%, sealed, Month 6
[22] = Batch 1, 25° C./relative humidity at 60%, sealed, Month 3
[23] = Batch 1, 25° C./relative humidity at 60%, sealed, Month 6
[24] = Batch 2, 25° C./relative humidity at 60%, sealed, Month 3
[25] = Batch 2, 25° C./relative humidity at 60%, sealed, Month 6

With `O=C1CCC(c2noc3ccc4[nH]ccc4c23)C(=O)N1` (stereo not drawn) the hygroscopicity classification ([1]; 25° C., 80% RH, DVS) was “no or almost no hygroscopicity”, the “crystalline form after DVS test” value ([1]; after DVS) was “remained unchanged” and the “stability in solvents (conclusion)” value [2] was “good stability”. It also gave a Content ([3]; Day 0) of 98.9%, a Total impurities ([3]; Day 0) of less than 0.05% and a Content [3, 6] of 100.7%. For the same compound, the Total impurities [3, 6] was less than 0.05%, the Content [3, 7] was 100.2% and the Total impurities [3, 7] was less than 0.05%. For the same compound, the Content [3, 8] was 100.4%, the Total impurities [3, 8] was less than 0.05% and the Content [3, 9] was 99.9%. The Total impurities [3, 9] was less than 0.05%, the Content [3, 10] was 100.2% and the Total impurities [3, 10] was less than 0.05%. The Content [3, 11] was 100.2%, the Total impurities [3, 11] was less than 0.05% and the Content [3, 12] was 100.7%. It also gave a Total impurities [3, 12] of less than 0.05%, a Content [3, 13] of 100.0% and a Total impurities [3, 13] of less than 0.05%. The “solid stability (conclusion)” value ([3]; at high temperature, at high humidity, and in intense light) was “good stability”, the Content [4, 14] was 100.1% and the Total impurities [4, 14] was 0.05%. It also gave a Content [4, 15] of 100.4%, a Total impurities [4, 15] of less than 0.05% and a Content [4, 16] of 100.4%. For the same compound, the Total impurities [4, 16] was less than 0.05%, the Content [4, 17] was 98.1% and the Total impurities [4, 17] was less than 0.05%. It also gave a Content ([4]; Batch 1, Day 0) of 98.9%, a Total impurities ([4]; Batch 1, Day 0) of less than 0.05% and a Content [4, 18] of 100.0%. The Total impurities [4, 18] was 0.05%, the Content [4, 19] was 100.2% and the Total impurities [4, 19] was less than 0.05%. The Content [4, 20] was 100.2%, the Total impurities [4, 20] was less than 0.05% and the Content [4, 21] was 99.2%. The Total impurities [4, 21] was less than 0.05%, the Appearance ([4]; Batch 2, Day 0) was “White powder” and the Content ([4]; Batch 2, Day 0) was 100.2%. For the same compound, the Total impurities ([4]; Batch 2, Day 0) was less than 0.05%, the “solid stability (conclusion)” value ([4]; accelerated conditions at 40° C. with relative humidity at 75%) was “good stability” and the Content [5, 22] was 99.8%. The Total impurities [5, 22] was less than 0.05%, the Content [5, 23] was 99.2% and the Total impurities [5, 23] was less than 0.05%. The Content ([5]; Batch 1, Day 0) was 98.9%, the Total impurities ([5]; Batch 1, Day 0) was less than 0.05% and the Appearance [5, 24] was “White powder”. The Content [5, 24] was 100.4%, the Total impurities [5, 24] was less than 0.05% and the Appearance [5, 25] was “White powder”. For the same compound, the Content [5, 25] was 100.4%, the Total impurities [5, 25] was less than 0.05% and the Appearance ([5]; Batch 2, Day 0) was “White powder”. For the same compound, the Content ([5]; Batch 2, Day 0) was 100.2%, the Total impurities ([5]; Batch 2, Day 0) was less than 0.05% and the “solid stability (conclusion)” value ([5]; long-term conditions at 25° C. with relative humidity at 60%) was “good stability”.
